Measured values from patent US7300946B2, “N-(substituted arylmethyl)-4-(disubstituted methyl) piperidines and pyridines” (Bayer CropScience AG, priority 2002, dated 2007).

Tested on: tobacco budworm (Heliothis virescens [Fabricius])
Experiment: surface-treated diet test against the tobacco budworm
Type: in vivo
Conditions: tobacco budworm second instar larvae, 0.25 millimoles of candidate insecticide on the surface of the diet, five-day exposure; for Percent Mortality: compared to total number of insects infested; for Percent Growth Inhibition: inhibition of insect weight relative to untreated controls
Method in brief: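 Wheat germ artificial diet surface-treated with 40 µL of 50 mM DMSO stock diluted 1:7 in 1:1 water/acetone (0.25 millimolar on diet), or sub-multiples for rate tests. One second-instar larva per well, 25° C, 60% RH, 5 days; percent weight inhibition vs DMSO controls and percent mortality.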

| SMILES | Percent Mortality (surface-treated diet) [%] | Percent Growth Inhibition (surface-treated diet) [%] | Percent Mortality [%] | Percent Growth Inhibition [%] |
| --- | --- | --- | --- | --- |
| O=C(Nc1ccc(OC(F)(F)F)cc1)OC(c1ccc(C(F)(F)F)cc1)C1CCN(Cc2ccc(Oc3ccccn3)cc2)CC1 (stereo not shown) [Compound 249] | 100 | 100 | – | – |
| O=C(NCc1ccc(Cl)cc1Cl)OC(c1ccc(C(F)(F)F)cc1)C1CCN(Cc2ccc(Oc3ccccn3)cc2)CC1 (stereo not shown) [Compound 678] | 100 | 100 | – | – |
| FC(F)(F)c1ccc(C(Oc2ccc(C(F)(F)F)cn2)C2CCN(Cc3ccc(Oc4ccccn4)cc3)CC2)cc1 (stereo not shown) [Compound 437] | 100 | 100 | – | – |
| CCCOc1ccc(CN2CCC(=C(c3cccc(OC(F)(F)F)c3)c3cccc(OC(F)(F)F)c3)CC2)cc1 [Compound 47] | 0 | 11 | – | – |
| CN(C)C(=O)Nc1ccc(CN2CCC(C(OC(=O)Nc3cc(F)cc(F)c3)c3ccc(C(F)(F)F)cc3)CC2)cc1 (stereo not shown) [Compound 519] | 17 | 93 | – | – |
| CC(C)S(=O)(=O)Oc1ccc(CN2CCC(=C(c3ccc(C(F)(F)F)cc3)c3ccc(C(F)(F)F)cc3)CC2)cc1 [Compound 804] | – | – | 100 | 100 |
| O=C(Nc1cc(F)cc(F)c1)OC(c1ccc(Cl)cc1)C1CCN(Cc2ccc(Oc3ccccn3)cc2)CC1 (stereo not shown) [Compound 631] | 100 | 100 | – | – |
| O=C(Nc1cccc(F)c1)OC(c1ccc(Cl)cc1)C1CCN(Cc2ccc(Oc3ncccn3)cc2)CC1 (stereo not shown) [Compound 713] | – | – | 100 | 100 |
| [O-][N+]1(Cc2ccc(Oc3ncccn3)cc2)CCC(=C(c2ccc(Cl)cc2)c2ccc(Cl)cc2)CC1 (stereo not shown) [Compound 844] | – | – | 100 | 100 |
| CCCCCc1ccc(CN2CCC(C(OC(=O)Nc3cc(F)cc(F)c3)c3ccc(C(F)(F)F)cc3)CC2)cc1 (stereo not shown) [Compound 467] | 0 | 68 | – | – |
| C#CCOC(=O)Nc1ccc(CN2CCC(=C(c3ccc(Cl)cc3)c3ccc(Cl)cc3)CC2)cc1 [Compound 801] | – | – | 100 | 100 |
| CC(C)OC(=O)Nc1ccc(CN2CCC(=C(c3ccccc3)c3ccccc3)CC2)cc1 [Compound 793] | – | – | 0 | 76 |
| Fc1cc(F)cc(NC(=S)OC(c2ccc(C(F)(F)F)cc2)C2CCN(Cc3ccc(Oc4ccccn4)cc3)CC2)c1 (stereo not shown) [Compound 681] | 100 | 100 | – | – |
| CN(C(=O)OC(c1ccc(C(F)(F)F)cc1)C1CCN(Cc2ccc(Oc3ccccn3)cc2)CC1)c1ccccc1 (stereo not shown) [Compound 658] | 0 | 100 | – | – |
| CCCOc1ccc(CN2CCC(C(OC(=O)Nc3ccc(F)cc3)c3ccc(Cl)cc3)CC2)cc1 (stereo not shown) [Compound 471] | 100 | 100 | – | – |
| O=C(Nc1ccc(F)c(F)c1)OC(c1ccc(OC(F)(F)F)cc1)C1CCN(Cc2ccc(Oc3ccccn3)cc2)CC1 (stereo not shown) [Compound 238] | 100 | 100 | – | – |
| CCOC(=O)Nc1ccc(CN2CCC(C(OC(=O)Nc3cc(F)cc(F)c3)c3ccc(C(F)(F)F)cc3)CC2)cc1 (stereo not shown) [Compound 499] | 100 | 100 | – | – |
| CCOC(=O)CNC(=O)OC(c1ccc(C(F)(F)F)cc1)C1CCN(Cc2ccc(Oc3ccccn3)cc2)CC1 (stereo not shown) [Compound 783] | – | – | 0 | 70 |
| CC(=O)Oc1ccc(CN2CCC(=C(c3ccc(C(F)(F)F)cc3)c3ccc(C(F)(F)F)cc3)CC2)cc1 [Compound 788] | – | – | 33 | 87 |
| O=C(Nc1cc(F)cc(F)c1)OC(c1ccc(OC(F)(F)F)cc1)C1CCN(Cc2ccc(F)cc2)CC1 (stereo not shown) [Compound 461] | 0 | 98 | – | – |
| CC(NC(=O)OC(c1ccc(C(F)(F)F)cc1)C1CCN(Cc2ccc(Oc3ccccn3)cc2)CC1)c1ccccc1 (stereo not shown) [Compound 660] | 0 | 98 | – | – |

| SMILES | Percent Mortality (surface-treated diet) [%] | Percent Growth Inhibition (surface-treated diet) [%] | Percent Mortality [%] | Percent Growth Inhibition [%] |
| --- | --- | --- | --- | --- |
| O=C(Nc1ccc(Cl)cc1)OC(c1ccc(C(F)(F)F)cc1)C1CCN(Cc2ccc(Oc3ncccn3)cc2)CC1 (stereo not shown) [Compound 729] | – | – | 100 | 100 |
| CC(C)OC(=O)Nc1ccc(CN2CCC(C(OC(=O)Nc3cccc(F)c3)c3ccc(F)cc3)CC2)cc1 (stereo not shown) [Compound 504] | 100 | 100 | – | – |
| O=C(Nc1cc(F)cc(F)c1)OC(c1ccc(C(F)(F)F)cc1)C1CC[N+]([O-])(Cc2ccc(Oc3ncccc3C(F)(F)F)cc2)CC1 (stereo not shown) [Compound 759] | – | – | 100 | 100 |
| O=C(Nc1ccc(F)cc1)Oc1ccc(CN2CCC(C(OC(=O)Nc3ccc(F)cc3)c3ccc(OC(F)(F)F)cc3)CC2)cc1 (stereo not shown) [Compound 181] | 100 | 100 | – | – |
| CC(C)OC(=O)Nc1ccc(CN2CCC(C(OC(=O)Nc3ccc(Cl)cc3)c3ccc(F)cc3)CC2)cc1 (stereo not shown) [Compound 503] | 100 | 100 | – | – |
| O=C(Nc1ccc(Cl)cc1)OC(c1ccc(C(F)(F)F)cc1)C1CC[N+]([O-])(Cc2ccc(Oc3ccccn3)cc2)CC1 (stereo not shown) [Compound 395, N-(4-chlorophenyl)({1-[(4-(2-pyridyloxy)phenyl)methyl](4-(1-oxypiperidyl))}[4-(trifluoromethyl)phenyl]methoxy)carboxamide] | 100 | 100 | – | – |
| CCn1nnc(-c2ccc(CN3CCC(C(OC(=O)Nc4cc(F)cc(F)c4)c4ccc(C)cc4)CC3)cc2)n1 (stereo not shown) [Compound 598] | 100 | 100 | – | – |
| O=C(Nc1cc(Cl)c(Cl)cc1Cl)OC(c1ccc(C(F)(F)F)cc1)C1CCN(Cc2ccc(Oc3ccccn3)cc2)CC1 (stereo not shown) [Compound 234] | 100 | 100 | – | – |
| Cc1ccc(C(=O)NC(c2ccc(OC(F)(F)F)cc2)C2CCN(Cc3ccc(-c4nnn(C)n4)cc3)CC2)cc1 (stereo not shown) [Compound 330] | 33 | 89 | – | – |
| CC(=O)c1ccc(NC(=O)OC(c2ccc(C(F)(F)F)cc2)C2CCN(Cc3ccc(Oc4ccccn4)cc3)CC2)cc1 (stereo not shown) [Compound 705] | – | – | 17 | 100 |
| FC(F)(F)c1ccc(C(=C2CCN(Cc3ccc(Oc4ncccn4)cc3)CC2)c2ccccc2Cl)cc1 [Compound 814] | – | – | 100 | 100 |
| CC(C)OC(=O)Nc1ccc(CN2CCC(C(OC(=O)Nc3cc(F)cc(F)c3)c3ccc(Cl)cc3)CC2)cc1 (stereo not shown) [Compound 502] | 100 | 100 | – | – |
| O=C(Nc1ccc(Cl)cc1)OC(c1ccc(C(F)(F)F)cc1)C1CCN(Cc2ccc(Oc3nsnc3Cl)cc2)CC1 (stereo not shown) [Compound 561] | 50 | 100 | – | – |
| CCn1nnc(-c2ccc(CN3CCC(C(OC(=O)Nc4ccc(F)c(F)c4)c4ccc(Cl)c(Cl)c4)CC3)cc2)n1 (stereo not shown) [Compound 574] | 100 | 100 | – | – |
| CC(C)OC(=O)Nc1ccc(CN2CCC(=C(c3ccc(Cl)c(Cl)c3)c3ccc(Cl)c(Cl)c3)CC2)cc1 [Compound 795] | – | – | 50 | 94 |
| CCn1nnc(-c2ccc(CN3CCC(C(OC(=O)Nc4cc(F)cc(F)c4)c4ccc(C(F)(F)F)cc4)CC3)cc2)n1 (stereo not shown) [Compound 610] | 100 | 100 | – | – |
| CCOC(=O)Nc1ccc(C[N+]2([O-])CCC(=C(c3ccc(C(F)(F)F)cc3)c3ccc(C(F)(F)F)cc3)CC2)cc1 (stereo not shown) [Compound 101, N-{4-[(4-{bis[4-(trifluoromethyl)phenyl]methylene}piperidyl)methyl]phenyl}ethoxycarboxamide, N-oxide] | 100 | 100 | – | – |
| CSc1ccc(NC(=O)OC(c2ccc(C(F)(F)F)cc2)C2CCN(Cc3ccc(Oc4ccccn4)cc3)CC2)cc1 (stereo not shown) [Compound 702] | – | – | 100 | 100 |
| CC(C)(C)NC(=O)OC(c1ccc(C(F)(F)F)cc1)C1CCN(Cc2ccc(Oc3ccccn3)cc2)CC1 (stereo not shown) [Compound 779] | – | – | 100 | 100 |
| CCn1nnc(-c2ccc(CN3CCC(C(OC(=O)Nc4ccc(Cl)cc4)c4ccccc4Cl)CC3)cc2)n1 (stereo not shown) [Compound 567] | 100 | 100 | – | – |
